Reference: patent publication US20140235676A1, “RXR AGONIST COMPOUNDS AND METHODS” (Case Western Reserve University, priority 2011, published 2014)

Experiments:
[1] = system: primary microglia; assay: Intracellular Aβ degradation by primary microglia; assay type: cell-based, murine
Source text: FIG. 5 illustrates graphs showing RXR agonists stimulate Aβ degradation.
Given the ability of RXR activation to drive LXR target gene expression, we predicted that agonist treatment should promote the proteolytic degradation of Aβ by microglia. […] Aβ uptake was unaffected by either drug treatment.

[2] = system: astrocytes; assay: Inhibition of RXR mediated intracellular Aβ degradation by PPARγ or LXR inhibitors, astrocytes; assay type: cell-based; settings: inhibitor pretreatment 1.5 hrs, Bexarotene 24 hours, 2 ug/mL soluble Aβ 18 hours
Source text: (§1) FIG. 14 illustrates graphs showing RXR mediated intracellular Aβ degradation is prevented by inhibiting PPARγ or LXR.
(§2) To determine which heterodimer partners are involved in RXR activation driven Aβ intracellular degradation, we inhibited PPARγ and LXR by competitive inhibitors, TO and 22-s-Hydroxycholesterol, respectively. Aβ degradation mediated by either microglia (A) or astrocytes (B) is inhibited with either inhibitor to PPAR or LXR. Additionally, a co-treatment with both inhibitors reduces Aβ degradation further (FIG. 14).

[3] = system: microglia; assay: Inhibition of RXR mediated intracellular Aβ degradation by PPARγ or LXR inhibitors, microglia; assay type: cell-based; settings: inhibitor pretreatment 1.5 hrs, Bexarotene 24 hours, 2 ug/mL soluble Aβ 18 hours
Source text: as §1, §2

[4] = system: ApoE knock out microglia; assay: Intracellular Aβ degradation in ApoE knock out microglia; assay type: cell-based, murine; settings: without ApoE
[5] = system: ApoE knock out astrocytes; assay: Intracellular Aβ degradation in ApoE knock out astrocytes; assay type: cell-based, murine; settings: without ApoE
[6] = extended periods in humans; cited from earlier work
[7] = therapeutic doses, FDA alert May 21, 2007; cited from earlier work

CC1=C(/C=C/C(C)=C\C=C\C(C)=C\C(=O)O)C(C)(C)CCC1 [9cisRA]
Aβ uptake [1]: unaffected | intracellular Aβ levels ([1]; drug 24 hours then 18 hours with 2 μg/mL soluble Aβ): dose-dependent reduction

CC(C)CC[C@H](O)[C@@H](C)[C@H]1CC[C@H]2[C@@H]3CC=C4C[C@@H](O)CC[C@]4(C)[C@H]3CC[C@]12C [22-s-Hydroxycholesterol]
Bexarotene driven intracellular Aβ degradation [2]: inhibited | Bexarotene driven intracellular Aβ degradation [3]: inhibited

C=C(c1ccc(C(=O)O)cc1)c1cc2c(cc1C)C(C)(C)CCC2(C)C [Bexarotene]
intracellular Aβ degradation [4]: no effect | intracellular Aβ degradation [5]: no effect | clinical safety profile [6]: good safety profile

CN(CCOc1ccc(CC2SC(=O)NC2=O)cc1)c1ccccn1 (stereo not drawn) [rosiglitazone, 5-[4-[2-(N-methyl-N-(2-pyridyl)amino]ethoxy]benzyl]thiazolidine-2,4-dione]
risk of death from all cardiovascular diseases [7]: even higher risk of death from all cardiovascular diseases | risk of heart attack [7]: significantly increased risk of heart attack
